Laboratory results reported in ChEMBL document CHEMBL3046565, “Fungicidal and herbicidal activities of berberine related alkaloids” (2000).

Key:
Type in all cases: functional
Lemna minor = test: Herbicidal activity against Lemna minor (common duckweed) at 1 ppm after 9 days relative to control
[1] = system: Agrostis stolonifera var. palustris; test: Herbicidal activity against Agrostis stolonifera var. palustris at 1 ppm after 9 days relative to control
Ustilago maydis = test: Antifungal activity against Ustilago maydis on rice plant at 25 ppm after 24 hr; conditions: Mycosarcoma maydis
Phytophthora infestans = test: microbe, parasite or virus in culture; conditions: in Oryza sativa, 24 h
Pyricularia oryzae = test: microbe, parasite or virus in culture; conditions: 24 h
Rhizoctonia solani = test: Antifungal activity against Rhizoctonia solani on rice plant at 25 ppm after 24 hr
Zymoseptoria tritici = test: Antifungal activity against Zymoseptoria tritici on wheat plant at 25 ppm after 24 hr
Parastagonospora nodorum [2] = test: Antifungal activity against Phaeosphaeria nodorum on wheat plant at 25 ppm after 24 hr
Puccinia recondita = test: Antifungal activity against Puccinia recondita on wheat plant assessed as disease control at 100 ppm after 24 hr
Parastagonospora nodorum [3] = test: Antifungal activity against Phaeosphaeria nodorum on wheat plant assessed as disease control at 100 ppm after 24 hr
[4] = system: Blumeria graminis f. sp. tritici; test: Antifungal activity against Blumeria graminis f. sp. tritici on wheat plant assessed as disease control at 100 ppm after 24 hr

Q: For `CCOc1c(OC)ccc2cc3[n+](cc12)CCc1cc2c(cc1-3)OCO2.[Cl-]` [9-O-ETHYLBERBERRUBINE], which Activity (Lemna minor) is on record?
A: Its Activity is 70%.

Q: What about the Activity [1] of the same compound?
A: The Activity was 0%.

Q: What about the inhibition at 25 ppm (Ustilago maydis) of the same compound?
A: Its inhibition at 25 ppm is 0%.

Q: And the inhibition at 25 ppm (Phytophthora infestans)?
A: The inhibition at 25 ppm was 0%.

Q: What about the inhibition at 25 ppm (Pyricularia oryzae) of the same compound?
A: Its inhibition at 25 ppm is 0%.

Q: What about the inhibition at 25 ppm (Rhizoctonia solani) of the same compound?
A: The inhibition at 25 ppm was 0%.

Q: And the inhibition at 25 ppm (Zymoseptoria tritici)?
A: The inhibition at 25 ppm was 90%.

Q: And the inhibition at 25 ppm (Parastagonospora nodorum [2])?
A: Its inhibition at 25 ppm is 0%.

Q: And the Activity (Puccinia recondita)?
A: The Activity was 75%.

Q: What about the Activity (Parastagonospora nodorum [3]) of the same compound?
A: The Activity was 0%.

Q: What about the Activity [4] of the same compound?
A: The Activity was 0%.
